Measurements reported in patent publication US5888475A, “Labeled cocaine analogs” (Emory University, priority 1997, dated 1999).
Read-outs that look alike come from different tables or passages of the source.

What was measured:
dopamine transporter = target: T1, dopamine transporter (Rattus norvegicus, UniProt P23977); experiment: In vitro binding: displacement of [3H]WIN 35,428 in rat striatal homogenate; conditions: displacement of [3H]WIN 35,428, rat striatal homogenate; read-out: calculated binding constant with dopamine transporter
T1 construct: in a rat striatal homogenate preparation; from tissue; host or cells: rat striatum (homogenate)
Protocol: (§1) In vivo distribution of a compound of the invention, [^18 F]-2β-carbo-2'-fluoroisopropoxy-3β-(4-iodophenyl)tropane (FIPIT) 8 (X=4-iodophenyl; Y=1'fluoro-isopropoxy) was measured, as well as brain PET imaging to determine suitability of the compound as a label. Also, in vitro binding studies were conducted, measuring the ability of FIPIT to displace [^3 H]WIN 35,428 (III) in a rat striatal homogenate preparation. These studies provided a calculated binding constant for FIPIT 8 with dopamine transporter of 1.13 nM. […] Region of interest measurements determined striatal to cerebellum ratios to be 3.0 at 190 min post administration. In the in vivo distribution studies, the distribution of radioactivity was expressed as percent dose per gram in tissues of unfasted male Sprague Dawley rats at 2 min, 30 min, 60 min and 120 min after intravenous administration of [^18 F] FIPIT 8. The results are shown in Table I. The initial level of accumulation of radioactivity in the striatum, a region rich in dopamine transporters, after injection of [^18 F] FIPIT 8 was high, 0.84% of injected dose/gram at 2 min, and decreased slowly to 0.50% of injected dose/gram at 120 min. […] However, the amount of radioactivity in the cerebellum and cortex at 120 min decreased to only 0.14% dose/gram and 0.26% dose/gram respectively resulting in a striatum to cerebellum ratio of 3.71 and a striatum to cortex ratio of 2.0.

[1] = Brain PET imaging with [18F]-FIPIT in a rhesus monkey; format: in vivo
Protocol: as §1

[2] = In vivo tissue distribution of radioactivity after intravenous administration; parameters: species or system Sprague Dawley rats; conditions: rat, i.v.; for tissue uptake at 2 min / tissue uptake at 0.5 h / tissue uptake at 1 h / tissue uptake at 2 h: iv
Protocol: as §1

T1 sequence (P23977 whole entry): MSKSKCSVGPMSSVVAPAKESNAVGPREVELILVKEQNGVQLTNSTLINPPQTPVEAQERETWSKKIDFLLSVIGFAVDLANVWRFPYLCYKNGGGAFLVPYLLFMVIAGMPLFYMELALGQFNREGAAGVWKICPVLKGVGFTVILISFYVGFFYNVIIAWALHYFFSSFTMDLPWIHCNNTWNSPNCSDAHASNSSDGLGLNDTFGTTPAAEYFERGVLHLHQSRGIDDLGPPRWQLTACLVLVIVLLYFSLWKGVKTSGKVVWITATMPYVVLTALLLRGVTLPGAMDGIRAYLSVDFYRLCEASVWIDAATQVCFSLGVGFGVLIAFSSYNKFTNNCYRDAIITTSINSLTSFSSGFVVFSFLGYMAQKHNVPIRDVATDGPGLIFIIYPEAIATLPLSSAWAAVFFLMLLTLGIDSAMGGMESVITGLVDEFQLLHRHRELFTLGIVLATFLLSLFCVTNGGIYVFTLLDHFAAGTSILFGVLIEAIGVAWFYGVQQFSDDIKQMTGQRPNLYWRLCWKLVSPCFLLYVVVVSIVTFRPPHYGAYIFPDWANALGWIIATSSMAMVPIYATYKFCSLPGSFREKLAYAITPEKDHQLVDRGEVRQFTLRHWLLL

SMILES: CC(CF)OC(=O)[C@H]1[C@@H](c2ccc(I)cc2)C[C@@H]2CC[C@H]1N2C (stereo partly drawn) [FIPIT 8]
- Ki (dopamine transporter): 1.13 nM

SMILES: CC(C[18F])OC(=O)[C@H]1[C@@H](c2ccc(I)cc2)C[C@@H]2CC[C@H]1N2C (stereo partly drawn) [[^18 F] FIPIT 8, Fluorine-18 labeled2β-carbo-1'-fluoroisopropoxy-3β-(4-iodophenyl)tropane]
- brain region of highest uptake (basal ganglia/striatum) [1]: region of highest uptake in the brain
- retention in basal ganglia (striatum) ([1]; 190 min following injection): prolonged retention with clear visualization at 190 min
- striatal to cerebellum ratio (region of interest measurements) ([1]; 190 min post administration): 3.0
- tissue uptake at 2 min ([2]; blood, 2 min, read-out: Blood, Mean % Injected Dose/Gram): 0.14 %ID/g
- tissue uptake at 0.5 h ([2]; blood, 30 min, read-out: Blood, Mean % Injected Dose/Gram): 0.03 %ID/g
- tissue uptake at 1 h ([2]; blood, 60 min, read-out: Blood, Mean % Injected Dose/Gram): 0.03 %ID/g
- tissue uptake at 2 h ([2]; blood, 120 min, read-out: Blood, Mean % Injected Dose/Gram): 0.04 %ID/g
- tissue uptake at 2 min ([2]; bone, 2 min, read-out: Bone, Mean % Injected Dose/Gram): 0.28 %ID/g
- tissue uptake at 0.5 h ([2]; bone, 30 min, read-out: Bone, Mean % Injected Dose/Gram): 0.21 %ID/g
- tissue uptake at 1 h ([2]; bone, 60 min, read-out: Bone, Mean % Injected Dose/Gram): 0.17 %ID/g
- tissue uptake at 2 h ([2]; bone, 120 min, read-out: Bone, Mean % Injected Dose/Gram): 0.25 %ID/g
- tissue uptake at 2 min ([2]; brain, 2 min, read-out: Brain (B), Mean % Injected Dose/Gram): 0.83 %ID/g
- tissue uptake at 0.5 h ([2]; brain, 30 min, read-out: Brain (B), Mean % Injected Dose/Gram): 0.53 %ID/g
- tissue uptake at 1 h ([2]; brain, 60 min, read-out: Brain (B), Mean % Injected Dose/Gram): 0.31 %ID/g
- tissue uptake at 2 h ([2]; brain, 120 min, read-out: Brain (B), Mean % Injected Dose/Gram): 0.28 %ID/g
- tissue uptake at 2 min ([2]; cerebellum, 2 min, read-out: Cerebell (C), Mean % Injected Dose/Gram): 0.76 %ID/g
- tissue uptake at 0.5 h ([2]; cerebellum, 30 min, read-out: Cerebell (C), Mean % Injected Dose/Gram): 0.3 %ID/g
- tissue uptake at 1 h ([2]; cerebellum, 60 min, read-out: Cerebell (C), Mean % Injected Dose/Gram): 0.16 %ID/g
- tissue uptake at 2 h ([2]; cerebellum, 120 min, read-out: Cerebell (C), Mean % Injected Dose/Gram): 0.14 %ID/g
- tissue uptake at 2 min ([2]; cortex, 2 min, read-out: Cortex (Cx), Mean % Injected Dose/Gram): 0.98 %ID/g
- tissue uptake at 0.5 h ([2]; cortex, 30 min, read-out: Cortex (Cx), Mean % Injected Dose/Gram): 0.53 %ID/g
- tissue uptake at 1 h ([2]; cortex, 60 min, read-out: Cortex (Cx), Mean % Injected Dose/Gram): 0.28 %ID/g
- tissue uptake at 2 h ([2]; cortex, 120 min, read-out: Cortex (Cx), Mean % Injected Dose/Gram): 0.26 %ID/g
- tissue uptake at 2 min ([2]; heart, 2 min, read-out: Heart, Mean % Injected Dose/Gram): 1.7 %ID/g
- tissue uptake at 0.5 h ([2]; heart, 30 min, read-out: Heart, Mean % Injected Dose/Gram): 0.14 %ID/g
- tissue uptake at 1 h ([2]; heart, 60 min, read-out: Heart, Mean % Injected Dose/Gram): 0.1 %ID/g
- tissue uptake at 2 h ([2]; heart, 120 min, read-out: Heart, Mean % Injected Dose/Gram): 0.12 %ID/g
- tissue uptake at 2 min ([2]; kidney, 2 min, read-out: Kidney, Mean % Injected Dose/Gram): 2.61 %ID/g
- tissue uptake at 0.5 h ([2]; kidney, 30 min, read-out: Kidney, Mean % Injected Dose/Gram): 0.85 %ID/g
- tissue uptake at 1 h ([2]; kidney, 60 min, read-out: Kidney, Mean % Injected Dose/Gram): 0.44 %ID/g
- tissue uptake at 2 h ([2]; kidney, 120 min, read-out: Kidney, Mean % Injected Dose/Gram): 0.3 %ID/g
- tissue uptake at 2 min ([2]; liver, 2 min, read-out: Liver, Mean % Injected Dose/Gram): 1.5 %ID/g
- tissue uptake at 0.5 h ([2]; liver, 30 min, read-out: Liver, Mean % Injected Dose/Gram): 3.89 %ID/g
- tissue uptake at 1 h ([2]; liver, 60 min, read-out: Liver, Mean % Injected Dose/Gram): 5.2 %ID/g
- tissue uptake at 2 h ([2]; liver, 120 min, read-out: Liver, Mean % Injected Dose/Gram): 4.46 %ID/g
- tissue uptake at 2 min ([2]; lung, 2 min, read-out: Lung, Mean % Injected Dose/Gram): 6.21 %ID/g
- tissue uptake at 0.5 h ([2]; lung, 30 min, read-out: Lung, Mean % Injected Dose/Gram): 0.61 %ID/g
- tissue uptake at 1 h ([2]; lung, 60 min, read-out: Lung, Mean % Injected Dose/Gram): 0.4 %ID/g
- tissue uptake at 2 h ([2]; lung, 120 min, read-out: Lung, Mean % Injected Dose/Gram): 0.46 %ID/g
- tissue uptake at 2 min ([2]; muscle, 2 min, read-out: Muscle, Mean % Injected Dose/Gram): 0.12 %ID/g
- tissue uptake at 0.5 h ([2]; muscle, 30 min, read-out: Muscle, Mean % Injected Dose/Gram): 0.13 %ID/g
- tissue uptake at 1 h ([2]; muscle, 60 min, read-out: Muscle, Mean % Injected Dose/Gram): 0.04 %ID/g
- tissue uptake at 2 h ([2]; muscle, 120 min, read-out: Muscle, Mean % Injected Dose/Gram): 0.08 %ID/g
- washout from brain regions other than striatum [2]: rapid washout in all other brain regions
- Bone, Mean % Injected Dose/Gram ([2]; 2 min): 0.28 % Injected Dose/Gram
- Cerebell (C), Mean % Injected Dose/Gram ([2]; 2 min): 0.76 % Injected Dose/Gram
- Cortex (Cx), Mean % Injected Dose/Gram ([2]; 2 min): 0.98 % Injected Dose/Gram
- St/C (striatum to cerebellum ratio) ([2]; 2 min): 1.12
- St/Cx (striatum to cortex ratio) ([2]; 2 min): 0.86
- Striatum (St), Mean % Injected Dose/Gram ([2]; 2 min): 0.84 % Injected Dose/Gram
- in vivo defluorination (from bone radioactivity) ([2]; 2 min to 120 min): stability of the 2β-fluoroisopropyl group to significant in vivo defluorination
- St/C (striatum to cerebellum ratio) ([2]; 30 min): 2.42
- St/Cx (striatum to cortex ratio) ([2]; 30 min): 1.38
- St/C (striatum to cerebellum ratio) ([2]; 60 min): 3.63
- St/Cx (striatum to cortex ratio) ([2]; 60 min): 2.13
- Bone, Mean % Injected Dose/Gram ([2]; 120 min): 0.25 % Injected Dose/Gram
- Cerebell (C), Mean % Injected Dose/Gram ([2]; 120 min): 0.14 % Injected Dose/Gram
- Cortex (Cx), Mean % Injected Dose/Gram ([2]; 120 min): 0.26 % Injected Dose/Gram
- St/C (striatum to cerebellum ratio) ([2]; 120 min): 3.71
- St/Cx (striatum to cortex ratio) ([2]; 120 min): 2.0
- Striatum (St), Mean % Injected Dose/Gram ([2]; 120 min): 0.50 % Injected Dose/Gram
- St/Cx (striatum to cortex ratio) ([2]; 120 min, listed as [^18 F] FIPIT (8)): 2.00
- tissue uptake at 2 min ([2]; spleen, 2 min, read-out: Spleen, Mean % Injected Dose/Gram): 1.58 %ID/g
- tissue uptake at 0.5 h ([2]; spleen, 30 min, read-out: Spleen, Mean % Injected Dose/Gram): 0.64 %ID/g
- tissue uptake at 1 h ([2]; spleen, 60 min, read-out: Spleen, Mean % Injected Dose/Gram): 0.4 %ID/g
- tissue uptake at 2 h ([2]; spleen, 120 min, read-out: Spleen, Mean % Injected Dose/Gram): 0.38 %ID/g
- tissue uptake at 2 min ([2]; striatum, 2 min, read-out: Striatum (St), Mean % Injected Dose/Gram): 0.84 %ID/g
- tissue uptake at 0.5 h ([2]; striatum, 30 min, read-out: Striatum (St), Mean % Injected Dose/Gram): 0.73 %ID/g
- tissue uptake at 1 h ([2]; striatum, 60 min, read-out: Striatum (St), Mean % Injected Dose/Gram): 0.58 %ID/g
- tissue uptake at 2 h ([2]; striatum, 120 min, read-out: Striatum (St), Mean % Injected Dose/Gram): 0.5 %ID/g
- tissue uptake at 2 min ([2]; testis, 2 min, read-out: Testis, Mean % Injected Dose/Gram): 0.14 %ID/g
- tissue uptake at 0.5 h ([2]; testis, 30 min, read-out: Testis, Mean % Injected Dose/Gram): 0.68 %ID/g
- tissue uptake at 1 h ([2]; testis, 60 min, read-out: Testis, Mean % Injected Dose/Gram): 0.17 %ID/g
- tissue uptake at 2 h ([2]; testis, 120 min, read-out: Testis, Mean % Injected Dose/Gram): 0.19 %ID/g
